Results: ChEMBL document CHEMBL1136423, “Phosphate ester serum albumin affinity tags greatly improve peptide half-life in vivo” (Bioorg Med Chem Lett, 2003)
Where a SMILES comes first, the peptide text is derived from it. Bridges are numbered along the chain shown (N, C = ends). The star is where a group is joined. X3 = O=C(CCCCCOP(=O)(O)OC1CCC(c2ccccc2)(c2ccccc2)CC1)*; X4 = O=C(CCC(=O)*)NS(=O)(=O)c1ccc2ccccc2c1; X2 = O=C(CCCCCOP(=O)(O)Oc1ccc2ccccc2c1)*; X1 = O=C(CCCCCOP(=O)(O)OCCCCCc1ccccc1)*

Biological target: Albumin (Oryctolagus cuniculus) (UniProt P49065)
Sequence (P49065 whole entry, looked up): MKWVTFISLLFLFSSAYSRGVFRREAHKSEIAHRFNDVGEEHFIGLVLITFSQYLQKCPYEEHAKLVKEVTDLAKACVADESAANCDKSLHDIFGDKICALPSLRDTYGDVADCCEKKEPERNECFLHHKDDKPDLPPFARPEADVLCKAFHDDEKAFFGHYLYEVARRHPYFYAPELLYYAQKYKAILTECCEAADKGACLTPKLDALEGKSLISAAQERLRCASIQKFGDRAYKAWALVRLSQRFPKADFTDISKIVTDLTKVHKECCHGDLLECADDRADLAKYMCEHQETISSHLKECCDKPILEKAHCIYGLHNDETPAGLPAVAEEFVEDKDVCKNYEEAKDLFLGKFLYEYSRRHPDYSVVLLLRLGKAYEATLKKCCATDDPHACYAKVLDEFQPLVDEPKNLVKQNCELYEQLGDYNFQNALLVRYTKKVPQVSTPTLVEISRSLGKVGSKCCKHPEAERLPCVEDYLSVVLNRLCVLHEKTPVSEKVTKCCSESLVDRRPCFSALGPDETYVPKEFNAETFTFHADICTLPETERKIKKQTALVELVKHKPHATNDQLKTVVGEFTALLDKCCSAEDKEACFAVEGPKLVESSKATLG
Assay: Compound was measured for its retention time in rabbit serum albumin;where k`=tt-t0/t0; tt=retention time of compound and t0=retention time of DMSO

With `CC[C@H](C)[C@@H]1NC(=O)[C@H](CCCN=C(N)N)NC(=O)[C@@H]2CCCN2C(=O)[C@H](CC(N)=O)NC(=O)[C@H](CC(=O)O)NC(=O)[C@@H](NC(=O)[C@H](CC(C)C)NC(=O)[C@H](C)NC(=O)CCC(=O)NS(=O)(=O)c2ccc3ccccc3c2)CSSC[C@@H](C(=O)N[C@@H](CCC(N)=O)C(=O)N[C@@H](Cc2ccccc2)C(=O)N[C@H](C(=O)N[C@@H](CCC(=O)O)C(=O)NCC(N)=O)C(C)C)NC(=O)[C@H](Cc2ccc(O)cc2)NC(=O)[C@H](Cc2c[nH]c3ccccc23)NC(=O)[C@H](CCCN=C(N)N)NC(=O)[C@H](CC(=O)O)NC1=O` (X4-ALCDNPRIDRWYCQFVEG-NH2; disulfide 3-13) the “k'/k'+1” value was 0.98.

For `CC[C@H](C)[C@@H]1NC(=O)[C@H](CCCN=C(N)N)NC(=O)[C@@H]2CCCN2C(=O)[C@H](CC(N)=O)NC(=O)[C@H](CC(=O)O)NC(=O)[C@@H](NC(=O)[C@H](CC(C)C)NC(=O)[C@H](C)NC(=O)CCCCCOP(=O)(O)OCCCCCc2ccccc2)CSSC[C@@H](C(=O)N[C@@H](CCC(N)=O)C(=O)N[C@@H](Cc2ccccc2)C(=O)N[C@H](C(=O)N[C@@H](CCC(=O)O)C(=O)NCC(N)=O)C(C)C)NC(=O)[C@H](Cc2ccc(O)cc2)NC(=O)[C@H](Cc2c[nH]c3ccccc23)NC(=O)[C@H](CCCN=C(N)N)NC(=O)[C@H](CC(=O)O)NC1=O` (X1-ALCDNPRIDRWYCQFVEG-NH2; disulfide 3-13), the “k'/k'+1” value was 0.98.

In the case of `CC[C@H](C)[C@@H]1NC(=O)[C@H](CCCN=C(N)N)NC(=O)[C@@H]2CCCN2C(=O)[C@H](CC(N)=O)NC(=O)[C@H](CC(=O)O)NC(=O)[C@@H](NC(=O)[C@H](CC(C)C)NC(=O)[C@H](C)NC(C)=O)CSSC[C@@H](C(=O)N[C@@H](CCC(N)=O)C(=O)N[C@@H](Cc2ccccc2)C(=O)N[C@H](C(=O)N[C@@H](CCC(=O)O)C(=O)NCC(N)=O)C(C)C)NC(=O)[C@H](Cc2ccc(O)cc2)NC(=O)[C@H](Cc2c[nH]c3ccccc23)NC(=O)[C@H](CCCN=C(N)N)NC(=O)[C@H](CC(=O)O)NC1=O` (Ac-ALCDNPRIDRWYCQFVEG-NH2; disulfide 3-13), the “k'/k'+1” value is reported as 0.39.

`CC[C@H](C)[C@@H]1NC(=O)[C@H](CCCN=C(N)N)NC(=O)[C@@H]2CCCN2C(=O)[C@H](CC(N)=O)NC(=O)[C@H](CC(=O)O)NC(=O)[C@@H](NC(=O)[C@H](CC(C)C)NC(=O)[C@H](C)NC(=O)CCCCCOP(=O)(O)Oc2ccc3ccccc3c2)CSSC[C@@H](C(=O)N[C@@H](CCC(N)=O)C(=O)N[C@@H](Cc2ccccc2)C(=O)N[C@H](C(=O)N[C@@H](CCC(=O)O)C(=O)NCC(N)=O)C(C)C)NC(=O)[C@H](Cc2ccc(O)cc2)NC(=O)[C@H](Cc2c[nH]c3ccccc23)NC(=O)[C@H](CCCN=C(N)N)NC(=O)[C@H](CC(=O)O)NC1=O` (X2-ALCDNPRIDRWYCQFVEG-NH2; disulfide 3-13) was tested, and the “k'/k'+1” value was 0.97.

With `CC[C@H](C)[C@@H]1NC(=O)[C@H](CCCN=C(N)N)NC(=O)[C@@H]2CCCN2C(=O)[C@H](CC(N)=O)NC(=O)[C@H](CC(=O)O)NC(=O)[C@@H](NC(=O)[C@H](CC(C)C)NC(=O)[C@H](C)NC(=O)CCCCCOP(=O)(O)OC2CCC(c3ccccc3)(c3ccccc3)CC2)CSSC[C@@H](C(=O)N[C@@H](CCC(N)=O)C(=O)N[C@@H](Cc2ccccc2)C(=O)N[C@H](C(=O)N[C@@H](CCC(=O)O)C(=O)NCC(N)=O)C(C)C)NC(=O)[C@H](Cc2ccc(O)cc2)NC(=O)[C@H](Cc2c[nH]c3ccccc23)NC(=O)[C@H](CCCN=C(N)N)NC(=O)[C@H](CC(=O)O)NC1=O` (X3-ALCDNPRIDRWYCQFVEG-NH2; disulfide 3-13) the “k'/k'+1” value was 0.97.
